Consider 27 compounds from US10793564B2, “Amino acid compounds and methods of use” (Pliant Therapeutics, Inc., priority 2018, dated 2020).

Chain of recombinant human integrin αVβ6 (P06756 31-992): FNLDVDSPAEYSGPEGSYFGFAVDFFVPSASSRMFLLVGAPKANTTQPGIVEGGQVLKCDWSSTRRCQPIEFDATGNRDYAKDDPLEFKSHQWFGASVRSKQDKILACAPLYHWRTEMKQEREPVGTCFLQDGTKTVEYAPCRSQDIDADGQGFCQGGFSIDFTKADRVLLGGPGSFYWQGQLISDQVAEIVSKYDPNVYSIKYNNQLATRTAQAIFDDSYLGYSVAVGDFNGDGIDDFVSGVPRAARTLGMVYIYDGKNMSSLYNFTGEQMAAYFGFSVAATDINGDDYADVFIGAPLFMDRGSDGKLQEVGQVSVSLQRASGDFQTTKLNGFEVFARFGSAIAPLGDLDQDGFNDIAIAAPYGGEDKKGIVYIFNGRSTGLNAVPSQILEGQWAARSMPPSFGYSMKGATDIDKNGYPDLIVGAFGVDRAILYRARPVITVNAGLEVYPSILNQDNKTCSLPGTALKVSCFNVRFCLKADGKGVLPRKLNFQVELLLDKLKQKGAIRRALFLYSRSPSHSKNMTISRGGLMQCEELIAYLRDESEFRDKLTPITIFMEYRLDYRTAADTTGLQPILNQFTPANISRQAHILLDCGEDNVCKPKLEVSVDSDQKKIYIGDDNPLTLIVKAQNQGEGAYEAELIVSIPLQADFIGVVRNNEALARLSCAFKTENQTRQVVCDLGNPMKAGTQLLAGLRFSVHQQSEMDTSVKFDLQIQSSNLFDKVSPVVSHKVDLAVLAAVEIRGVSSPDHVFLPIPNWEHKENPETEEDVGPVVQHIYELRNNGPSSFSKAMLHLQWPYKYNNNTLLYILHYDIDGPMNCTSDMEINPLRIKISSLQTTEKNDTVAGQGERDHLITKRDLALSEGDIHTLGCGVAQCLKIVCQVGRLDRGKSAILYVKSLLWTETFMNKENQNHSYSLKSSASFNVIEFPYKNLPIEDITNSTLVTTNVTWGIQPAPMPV
Chain of recombinant human integrin αVβ6 (P18564 22-707): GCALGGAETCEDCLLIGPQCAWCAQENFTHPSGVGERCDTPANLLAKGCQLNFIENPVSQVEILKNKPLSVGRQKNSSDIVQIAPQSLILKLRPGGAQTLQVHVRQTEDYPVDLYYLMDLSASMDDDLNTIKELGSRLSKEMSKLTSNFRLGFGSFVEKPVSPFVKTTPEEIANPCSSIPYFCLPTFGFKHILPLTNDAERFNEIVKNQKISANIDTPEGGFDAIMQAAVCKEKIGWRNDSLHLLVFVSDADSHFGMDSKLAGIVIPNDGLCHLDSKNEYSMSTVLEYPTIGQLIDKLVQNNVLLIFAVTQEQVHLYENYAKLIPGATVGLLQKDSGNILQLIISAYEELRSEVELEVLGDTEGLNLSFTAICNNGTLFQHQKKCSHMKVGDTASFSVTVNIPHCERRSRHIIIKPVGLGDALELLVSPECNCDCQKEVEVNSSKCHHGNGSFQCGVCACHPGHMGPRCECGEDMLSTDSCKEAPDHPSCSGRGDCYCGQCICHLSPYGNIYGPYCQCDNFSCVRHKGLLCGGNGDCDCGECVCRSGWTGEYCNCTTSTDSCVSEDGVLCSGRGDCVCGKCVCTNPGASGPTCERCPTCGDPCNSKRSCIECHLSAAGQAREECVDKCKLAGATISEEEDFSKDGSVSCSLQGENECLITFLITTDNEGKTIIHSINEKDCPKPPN

The target of this assay is recombinant human integrin αVβ6 (Homo sapiens (Human), UniProt P06756+P18564). The experiment in a line: Solid phase integrin αVβ6 binding assay. Conditions: inhibition of recombinant TGFβ1 LAP binding to coated integrin, IC50 presented in four ranges, read-out: αvβ6 Inhibition IC50 (nM) - range. In a few lines:
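Plates coated with recombinant human αVβ6 (2 μg/mL) and blocked; compounds competed with TGFβ1 LAP (0.67 μg/mL) in Mn2+ (0.5 mM)/BSA/sucrose TBS for 2 h at 25° C. Bound LAP detected by biotin anti-LAP and peroxidase-streptavidin; IC50 by four-parameter logistic fit.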
With `CS(=O)(=O)CCN(CCCCc1ccc2c(n1)NCCC2)CC[C@H](Nc1ncnc2ccccc12)C(=O)O` [Compound 27, (S)-4-((2-(methylsulfonyl)ethyl) (4-(5,6,7,8-tetrahydro-1,8-naphthyridin-2-yl)butyl)amino)-2-(quinazolin-4-ylamino) butanoic Acid], the IC50 is under 50 nM.

In the case of `O=C(O)[C@H](CCN(CCO)CCCCc1ccc2c(n1)NCCC2)Nc1ncnc2ccccc12` [Compound 75, (S)-4-((2-hydroxyethyl) (4-(5,6,7,8-tetrahydro-1,8-naphthyridin-2-yl)butyl)amino)-2-(quinazolin-4-ylamino) butanoic Acid], the IC50 was under 50 nM.

On to `COC[C@@H](F)CN(CCCCc1ccc2c(n1)NCCC2)CC[C@H](Nc1cc(-c2ccccc2)ncn1)C(=O)O` [Compound 128, (S)-4-(((S)-2-fluoro-3-methoxypropyl) (4-(5,6,7,8-tetrahydro-1,8-naphthyridin-2-yl)butyl)amino)-2-((6-phenylpyrimidin-4-yl)amino) butanoic Acid], for which the half-maximal inhibitory concentration (IC50) was over 1000 nM. For the compound `CN(C)C(=O)CN(CCCCc1ccc2c(n1)NCCC2)CC[C@H](Nc1ncnc2c1cnn2C)C(=O)O` [Compound 140, (S)-4-((2-(dimethylamino)-2-oxoethyl) (4-(5,6,7,8-tetrahydro-1,8-naphthyridin-2-yl)butyl)amino)-2-((1-methyl-1H-pyrazolo[3,4-d]pyrimidin-4-yl)amino) butanoic Acid], the IC50 was under 50 nM.

Turning to `O=C(O)[C@H](CCN(CCCCc1ccc2c(n1)NCCC2)CCC(F)F)Nc1ncc(C(F)(F)F)cn1` [Compound 132, (S)-4-((3,3-difluoropropyl) (4-(5,6,7,8-tetrahydro-1,8-naphthyridin-2-yl)butyl)amino)-2-((5-(trifluoromethyl)pyrimidin-2-yl)amino) butanoic Acid], the half-inhibitory concentration (IC50) is 50 to 250 nM. As for `O=C(O)[C@H](CCN(CCCCc1ccc2c(n1)NCCC2)CC(F)F)Nc1cc(-c2ccccc2)ncn1` [Compound 142, (S)-4-((2,2-difluoroethyl) (4-(5,6,7,8-tetrahydro-1,8-naphthyridin-2-yl)butyl)amino)-2-((6-phenylpyrimidin-4-yl)amino) butanoic Acid], the figure is over 1000 nM; as for `CS(=O)(=O)CCN(CCCCc1ccc2c(n1)NCCC2)CC[C@H](Nc1cc(-n2cccn2)ncn1)C(=O)O` [Compound 126, (S)-2-((6-(1H-pyrazol-1-yl)pyrimidin-4-yl)amino)-4-((2-(methylsulfonyl)ethyl) (4-(5,6,7,8-tetrahydro-1,8-naphthyridin-2-yl)butyl)amino) butanoic Acid], over 1000 nM; as for `O=C(O)[C@H](CCN(CCCCc1ccc2c(n1)NCCC2)CC(F)F)Nc1ncc(C2CC2)cn1` [Compound 146, (S)-2-((5-cyclopropylpyrimidin-2-yl)amino)-4-((2,2-difluoroethyl) (4-(5,6,7,8-tetrahydro-1,8-naphthyridin-2-yl)butyl)amino) butanoic Acid], over 1000 nM. For `CS(=O)(=O)CCN(CCCCc1ccc2c(n1)NCCC2)CC[C@H](Nc1ncc(Br)cn1)C(=O)O` [Compound 103, (S)-2-((5-bromopyrimidin-2-yl)amino)-4-((2-(methylsulfonyl)ethyl) (4-(5,6,7,8-tetrahydro-1,8-naphthyridin-2-yl)butyl)amino) butanoic Acid], the IC50 is over 1000 nM. As for `COCCN(CCCCc1ccc2c(n1)NCCC2)CC[C@H](Nc1ncnc2ccc(F)cc12)C(=O)O` [Compound 19, (S)-2-((6-fluoroquinazolin-4-yl)amino)-4-((2-methoxyethyl) (4-(5,6,7,8-tetrahydro-1,8-naphthyridin-2-yl)butyl)amino) butanoic Acid], the figure is under 50 nM; as for `O=C(O)[C@H](CCN(CCCCc1ccc2c(n1)NCCC2)C1CC1)Nc1ncc(C(F)(F)F)cn1` [Compound 114, (S)-4-(cyclopropyl(4-(5,6,7,8-tetrahydro-1,8-naphthyridin-2-yl)butyl)amino)-2-((5-(trifluoromethyl)pyrimidin-2-yl)amino) butanoic Acid], under 50 nM; as for `COCCN(CCCCc1ccc2c(n1)NCCC2)CC[C@H](Nc1ncnc2cccc(F)c12)C(=O)O` [Compound 18, (S)-2-((5-fluoroquinazolin-4-yl)amino)-4-((2-methoxyethyl) (4-(5,6,7,8-tetrahydro-1,8-naphthyridin-2-yl)butyl)amino) butanoic Acid], under 50 nM. In the case of `O=C(O)[C@H](CCN(CCCCc1ccc2c(n1)NCCC2)CCOc1ccccc1)Nc1ncnc2[nH]ncc12` [Compound 90, (S)-2-((1H-pyrazolo[3,4-d]pyrimidin-4-yl)amino)-4-((2-phenoxyethyl) (4-(5,6,7,8-tetrahydro-1,8-naphthyridin-2-yl)butyl)amino) butanoic Acid], the half-inhibitory concentration (IC50) is under 50 nM.

Take `CO[C@H](C)CN(CCCCc1ccc2c(n1)NCCC2)CC[C@H](Nc1ncnc2c1cnn2C)C(=O)O` [Compound 74, (S)-4-(((R)-2-methoxypropyl) (4-(5,6,7,8-tetrahydro-1,8-naphthyridin-2-yl)butyl)amino)-2-((1-methyl-1H-pyrazolo[3,4-d]pyrimidin-4-yl)amino) butanoic Acid]: the IC50 was under 50 nM. Turning to `Cc1cc(N[C@@H](CCN(CCCCc2ccc3c(n2)NCCC3)CC(F)F)C(=O)O)nc(-c2ccncc2)n1` [Compound 122, (S)-4-((2,2-difluoroethyl) (4-(5,6,7,8-tetrahydro-1,8-naphthyridin-2-yl)butyl)amino)-2-((6-methyl-2-(pyridin-4-yl)pyrimidin-4-yl)amino) butanoic Acid], the half-maximal inhibitory concentration (IC50) was 250 to 1000 nM. In the case of `O=C(O)[C@H](CCN(CCCCc1ccc2c(n1)NCCC2)CC1CCO1)Nc1ncnc2ccccc12` (stereo partly drawn) [Compound 129, (2S)-4-((oxetan-2-ylmethyl) (4-(5,6,7,8-tetrahydro-1,8-naphthyridin-2-yl)butyl)amino)-2-(quinazolin-4-ylamino) butanoic Acid] it was under 50 nM; in that of `Cc1ncccc1OCCN(CCCCc1ccc2c(n1)NCCC2)CC[C@H](Nc1ncnc2cccnc12)C(=O)O` [Compound 54, (S)-4-((2-((2-methylpyridin-3-yl)oxy)ethyl) (4-(5,6,7,8-tetrahydro-1,8-naphthyridin-2-yl)butyl)amino)-2-(pyrido[3,2-d]pyrimidin-4-ylamino) butanoic Acid], under 50 nM. As for `CO[C@H](C)CN(CCCCc1ccc2c(n1)NCCC2)CC[C@H](Nc1ccnc(C(F)(F)F)n1)C(=O)O` [Compound 72, (S)-4-(((R)-2-methoxypropyl) (4-(5,6,7,8-tetrahydro-1,8-naphthyridin-2-yl)butyl)amino)-2-((2-(trifluoromethyl)pyrimidin-4-yl)amino) butanoic Acid], the IC50 was under 50 nM. As for `O=C(O)[C@H](CCN(CCCCc1ccc2c(n1)NCCC2)CC(F)F)Nc1ncc(C(F)(F)F)cn1` [Compound 95, (S)-4-((2,2-difluoroethyl) (4-(5,6,7,8-tetrahydro-1,8-naphthyridin-2-yl)butyl)amino)-2-((5-(trifluoromethyl)pyrimidin-2-yl)amino) butanoic Acid], the figure is over 1000 nM; as for `CO[C@H](C)CN(CCCCc1ccc2c(n1)NCCC2)CC[C@H](Nc1ncc(C2CC2)cn1)C(=O)O` [Compound 124, (S)-2-((5-cyclopropylpyrimidin-2-yl)amino)-4-(((R)-2-methoxypropyl) (4-(5,6,7,8-tetrahydro-1,8-naphthyridin-2-yl)butyl)amino) butanoic Acid], under 50 nM; as for `COC[C@@H](F)CN(CCCCc1ccc2c(n1)NCCC2)CC[C@H](Nc1ccnc(C(F)(F)F)n1)C(=O)O` [Compound 87, (S)-4-(((S)-2-fluoro-3-methoxypropyl) (4-(5,6,7,8-tetrahydro-1,8-naphthyridin-2-yl)butyl)amino)-2-((2-(trifluoromethyl)pyrimidin-4-yl)amino) butanoic Acid], 250 to 1000 nM.

Take `CO[C@H](C)CN(CCCCc1ccc2c(n1)NCCC2)CC[C@H](Nc1ncnc2cn[nH]c12)C(=O)O` [Compound 79, (S)-2-((1H-pyrazolo[4,3-d]pyrimidin-7-yl)amino)-4-(((R)-2-methoxypropyl) (4-(5,6,7,8-tetrahydro-1,8-naphthyridin-2-yl)butyl)amino) butanoic Acid]: the IC50 was under 50 nM. In the case of `COCCN(CCCCc1ccc2c(n1)NCCC2)CC[C@H](Nc1ccnc2ccccc12)C(=O)O` [Compound 36, (S)-4-((2-methoxyethyl) (4-(5,6,7,8-tetrahydro-1,8-naphthyridin-2-yl)butyl)amino)-2-(quinolin-4-ylamino) butanoic Acid] it was over 1000 nM; in that of `CO[C@H](C)CN(CCCCc1ccc2c(n1)NCCC2)CC[C@H](Nc1cc(-n2cccn2)ncn1)C(=O)O` [Compound 77, (S)-2-((6-(1H-pyrazol-1-yl)pyrimidin-4-yl)amino)-4-(((R)-2-methoxypropyl) (4-(5,6,7,8-tetrahydro-1,8-naphthyridin-2-yl)butyl)amino) butanoic Acid], under 50 nM. `O=C(O)[C@H](CCN(CCCCc1ccc2c(n1)NCCC2)CCOc1ccccc1)Nc1ncnc2ccccc12` [Compound 28, (S)-4-((2-phenoxyethyl) (4-(5,6,7,8-tetrahydro-1,8-naphthyridin-2-yl)butyl)amino)-2-(quinazolin-4-ylamino) butanoic Acid]: the half-inhibitory concentration (IC50) was under 50 nM. As for `Cc1nc(N[C@@H](CCN(CCCCc2ccc3c(n2)NCCC3)CCOC2CC2(F)F)C(=O)O)c2ccc(F)cc2n1` (stereo partly drawn) [Compound 42, (2S)-4-((2-(2,2-difluorocyclopropoxy)ethyl) (4-(5,6,7,8-tetrahydro-1,8-naphthyridin-2-yl)butyl)amino)-2-((7-fluoro-2-methylquinazolin-4-yl)amino) butanoic Acid], the figure is under 50 nM; as for `O=C(O)[C@H](CCN(CCCCc1ccc2c(n1)NCCC2)CC(F)F)Nc1ccnc(C(F)(F)F)n1` [Compound 97, (S)-4-((2,2-difluoroethyl) (4-(5,6,7,8-tetrahydro-1,8-naphthyridin-2-yl)butyl)amino)-2-((2-(trifluoromethyl)pyrimidin-4-yl)amino) butanoic Acid], over 1000 nM.

For orientation: IC50 means the concentration needed to halve the response being measured.
